The results in this text go back to article PMC7918738, “Microtubule Destabilizing Sulfonamides as an Alternative to Taxane-Based Chemotherapy” (International Journal of Molecular Sciences, 2021).

One experiment concerns HeLa cells. Put plainly: Cell cycle analysis in HeLa (PI staining, flow cytometry). In kind it is cell-based, human. The following applies: 24 h; 38 600 nM, 42 50 nM, 45 400 nM. How it is done:
(§1) The effect of the lead MDS on the cell cycle of MCF7, SKOV3, and HeLa cells was analyzed in time-course experiments at 24, 48, and 72 h post-treatment by DNA staining and flow cytometry quantification. The working concentration for each compound (600 nM for 38, 50 nM for 42, and 400 nM for 45) was established at the complete inhibition of cell proliferation in view of individually assays run in parallel for each cell line.
(§2) Cell cycle analysis was performed in MCF7, SKOV-3, and HeLa cells by quantifying the DNA content by flow cytometry. Cells in the exponential growth phase at 2·10^4 cells/mL were seeded in 24-well plates (1 mL/well). After 24 h incubation, cells were treated with different concentrations of the selected compounds and the effect of treated and untreated cells was measured 24, 48, and 72 h post-treatment. Live and dead cells were collected and fixed in ice-cold ethanol/PBS (7:3) and stored at 4 °C for later use. Cells were rehydrated with PBS, treated with 100 µg/mL RNase A (Sigma-Aldrich Co., St. Louis, MO, USA) and stained overnight in darkness at room temperature with 50 µg/mL PI (Sigma-Aldrich Co.). Cell cycle profiles were then analyzed by flow cytometry using BD Accuri™ C6 Plus Flow Cytometer (BD Biosciences, San José, CA, USA). Data were analyzed with BD Accuri™ C6 Software (version 1.0.264.21, BD Biosciences, San José, CA, USA) and compared to control cells. Compounds were dissolved in DMSO and the final solvent concentration never exceeded 0.5% (v/v). Control wells included cells with 0.5% (v/v) DMSO.

For experiment [1], the system named is SKOV3 ovarian carcinoma cells. As to the kind of experiment: Antiproliferative activity against SKOV3 (MTT). The format is cell-based. The following applies: Homo sapiens, SK-OV-3, 72 h. How it is done: (§3) The in vitro antiproliferative activity of compounds 38, 42, and 45 against a panel of five human ovarian carcinoma cell lines (SKOV3, IGROV-1, A2780, OVCAR-8, and OVCAR-3) was evaluated by a colorimetric method (Table 3) and compared with paclitaxel. […] For SKOV3, the potency reduction observed for paclitaxel together with a sustained or improved (42 with a 7 nM IC50 value) potency for MDS results in a more favorable profile of the MDS compared to paclitaxel.
(§4) MCF7 (human breast carcinoma), SKOV-3 (human ovarian carcinoma), OVCAR-3 (human ovarian carcinoma), OVCAR-8 (human ovarian carcinoma), and HeLa (human cervical carcinoma) cell lines were cultured in Dulbecco’s Modified Eagle’s Medium (DMEM) (Gibco, Thermo Fischer Scientific) containing 10% (v/v) heat-inactivated fetal bovine serum (HIFBS) (Lonza-Cambrex, Karlskoga, Sweden), 2 mM L-glutamine (Lonza-Cambrex, Karlskoga, Sweden), 100 μg/mL streptomycin, and 100 IU/mL penicillin (Lonza-Cambrex) at 37 °C in humidified 95% air and 5% CO2. HT-29 (human colon carcinoma), IGROV-1 (human ovarian carcinoma), and A2780 (human ovarian carcinoma) cell lines were cultured in RPMI 1640 medium (Gibco, Thermo Fischer Scientific) supplemented with 10% HIFBS, 100 μg/mL streptomycin, and 100 IU/mL penicillin at 37 °C in humidified 95% air and 5% CO2 atmosphere. The presence of mycoplasma was routinely checked with MycoAlert kit (Lonza-Cambrex) and only mycoplasma-free cells were used in the experiments. Ovarian tumor cell lines were originally acquired from Dr Atanasio Pandiella from Centro de Investigación del Cáncer (CIC), Salamanca, Spain. HeLa, HT-29 and MCF7 tumor cell lines were provided by Dr Faustino Mollinedo from Centro de Investigaciones Biológicas Margarita Salas, Madrid, Spain.
(§5) MCF7, HeLa, and HT-29 cell proliferation, when treated with the corresponding compounds, were determined using the XTT (sodium 3’-[1(phenylaminocarbonyl)-3,4-tetrazolium]-bis(4-methoxy-6-nitro)-benzenesulfonic acid hydrate) cell proliferation kit (Roche Molecular Biochemicals, Mannheim, Germany). […] The absorbance of the formazan product generated was measured at 450 nm using a multi-well plate reader. SKOV-3, OVCAR-3, OVCAR-8, IGROV-1, A-2780 cell proliferation, when treated with the corresponding compound, were determined using MTT (3-(4,5-dimethylthiazol-2-yl)-2,5-diphenyl-2H-tetrazolium bromide) (Sigma-Aldrich, St. Louis, MO, USA). […] Absorbance was measured at 570 nm in a plate reader (Ultra Evolution, Tecan, Männedorf, Suiza). […] After 24 h incubation, to allow cells to attach to the plates, all compounds were added at 1 µM concentration and the effect on the proliferation was evaluated 72 h post-treatment. […]

The subject of another experiment is SKOV3 cells. Put plainly: Cell cycle analysis in SKOV3 (PI staining, flow cytometry). The format is cell-based, human. The following applies: 38 600 nM, 42 50 nM, 45 400 nM; for SKOV3 cells at G2/M phase: 24 h. How it is done: as §1, §2
Experiment [2] deals with OVCAR-3 ovarian carcinoma cells. As to the kind of experiment: Antiproliferative activity against OVCAR-3 (MTT). The format is cell-based. The following applies: Homo sapiens, 72 h. Here is the method:
as §3
(§6) MCF7 (human breast carcinoma), SKOV-3 (human ovarian carcinoma), OVCAR-3 (human ovarian carcinoma), OVCAR-8 (human ovarian carcinoma), and HeLa (human cervical carcinoma) cell lines were cultured in Dulbecco’s Modified Eagle’s Medium (DMEM) (Gibco, Thermo Fischer Scientific) containing 10% (v/v) heat-inactivated fetal bovine serum (HIFBS) (Lonza-Cambrex, Karlskoga, Sweden), 2 mM L-glutamine (Lonza-Cambrex, Karlskoga, Sweden), 100 μg/mL streptomycin, and 100 IU/mL penicillin (Lonza-Cambrex) at 37 °C in humidified 95% air and 5% CO2. […]
as §5

Experiment [3] deals with IGROV-1 ovarian carcinoma cells. Put plainly: Antiproliferative activity against IGROV-1 (MTT). The format is cell-based. The conditions noted are these: Homo sapiens, 72 h. Here is the method:
as §3, §4, §5

Experiment [4] concerns OVCAR-8 ovarian carcinoma cells. As to the kind of experiment: Antiproliferative activity against OVCAR-8 (MTT). In kind it is cell-based. The following applies: Homo sapiens, 72 h. How it is done:
as §3, §6, §5

For the compound `COc1ccc(S(=O)(=O)N(Cc2ccccc2)c2cc(OC)c(OC)c(OC)c2)cc1N` [Compound 45], the “HeLa cells at G2/M phase” value with HeLa cells is recorded as 80%. In addition, the IC50 in experiment [1] is 48 nM; in experiment [2], 58 nM; in experiment [3], 492 nM; in experiment [4], 48 nM. The “SKOV3 cells at G2/M phase” value in the experiment with SKOV3 cells is reported as 44%. For the same compound, the “SKOV3 cells at SubG0/G1” value is given as 46% with SKOV3 cells (48 h) and 63% in the experiment on SKOV3 cells (72 h).

For `COc1ccc(S(=O)(=O)N(C)c2cc(OC)c(OC)c(OC)c2)cc1N` [Compound 42], the “HeLa cells at G2/M phase” value with HeLa cells is on record as 44%. For the same compound, the IC50 in experiment [1] stood at 7 nM; in experiment [2] it was 72 nM; in experiment [3], 400 nM; in experiment [4], 37 nM. In addition, in the experiment on SKOV3 cells, the “SKOV3 cells at G2/M phase” value came out at 44%. The figures for the “SKOV3 cells at SubG0/G1” value in the experiment on SKOV3 cells (48 h) and in the experiment with SKOV3 cells (72 h) were 34% and 53%, respectively.

As for `CNc1ccc(S(=O)(=O)N(C)c2cc(OC)c(OC)c(OC)c2)cc1` [Compound 38], the “HeLa cells at G2/M phase” value in the experiment on HeLa cells turned out to be 80%. The IC50 worked out at 46 nM in experiment [1], 31 nM in experiment [2], 248 nM in experiment [3] and 74 nM in experiment [4]. Moreover, in the experiment on SKOV3 cells, the “SKOV3 cells at G2/M phase” value is on record as 44%. Moreover, the “SKOV3 cells at SubG0/G1” value in the experiment with SKOV3 cells (48 h) is given as 35%; in the experiment on SKOV3 cells (72 h), 43%.
